Entries after “also recorded” stand apart in the source; their conditions may differ.
What was measured:
HT-1080 cells [1] = assay: Cell death assay (PI flow cytometry), HT-1080 cells incl. knockout lines; settings: for cell death in SHMT2 knockout cells: ferroptosis inducer in SHMT2 knockout cells; for cell death in combination with RSL3: combined with RSL3, compared to RSL3 alone; for rescue of RSL3 plus sulfite induced cell death or decrease in cell viability: cell death inhibitors added to RSL3 plus sulfite; for cell death in combination with FIN56: combined with ferroptosis inducer FIN56; for cell death in combination with JKE-1674: combined with ferroptosis inducer JKE-1674 (JKE); for cell death in combination with ML-162: combined with ferroptosis inducer ML-162; for cell death in MTHFD2 knockout cells: ferroptosis inducer in MTHFD2 knockout HT-1080 cells; for cell death over various concentrations of RSL3: combined with various concentrations of RSL3
Protocol: Initially, the effect of sulfite on ferroptosis was studied. […] Each group was treated with vehicle alone or with sulfite.
The knockout cells were identified by immunoblotting.
Briefly, cells were seeded in 12-well plates and incubated overnight. After treatment, cells were trypsinized and collected. After washing with cold phosphate-buffered saline (PBS), the cells were stained with 2 μg/mL propidium iodide (PI) in cold PBS. […] All experiments were performed in triplicates.

[2] = test system: HT-1080, 786-O, U87, T98G, RCC4, H1299, A549, Hela and Hs578T; assay: Cell death assay (PI flow cytometry), panel of cancer cell lines; format: cell-based, human; settings: for enhancement of ferroptosis induced by RSL3: panel of cell lines tested
Protocol: All cell lines used in this study were free of mycoplasma contamination (per testing done by the vendor). All the cells were cultured in a 37° C. incubator in a 5% CO2 atmosphere. H1299 cells were cultured in RPMI-1640 medium supplemented with 10% fetal bovine serum and 10,000 U/mL penicillin-streptomycin. HT-1080, 786-O, U87, T98G, RCC4, A549, Hela and Hs578T cells were cultured in Dulbecco modified Eagle medium (DMEM) supplemented with 10% fetal bovine serum and 10,000 U/mL of penicillin-streptomycin.
After treatment, cells were trypsinized and collected. […] All experiments were performed in triplicates.

HT-1080 cells [3] = assay: Cell viability assay (CCK-8); format: cell-based, human
Protocol: Cell viability was measured using a Cell Counting Kit-8 (CCK-8, Dojindo) as previously described (Koppula, P., et al. J Biol Chem 292, 14240-14249, doi: 10.1074/jbc.M117.798405 (2017); Liu, X. et al. Nat Cell Biol 18, 431-442, doi: 10.1038/ncb3328 (2016)). In brief, cells were seeded onto 96-well plates at a density of 1×10^4 per well. The next day, cells were treated with indicated compound for 16-20 h. Subsequently, cells were changed to new 100 μl medium containing 10 μl CCK-8 reagent for 1 h at 37° C., 5% CO2 in incubator. The absorbance at 450 nm was determined using a FLUOstar Omega microplate reader (BMG Labtech).

HT-1080 cells [4] = assay: Lipid peroxidation measurement (C11-BODIPY 581/591, flow cytometry); format: cell-based, human; settings: for relative lipid peroxidation level in combination with RSL3: combined with RSL3, compared to RSL3 alone
Protocol: Cells were seeded on 12-well plates and incubated overnight. After treating with compounds for indicated time, cells were incubated in media containing 5 μM C11-BODIPY 581/591 (Invitrogen) for 30 min at 37° C. Then cells were trypsinized and collected. […] All experiments were performed in triplicates.

[5] = test system: HT-1080-derived xenografts; assay: HT-1080-derived xenograft in nude mice; format: in vivo; settings: for growth of HT-1080-derived xenografts (tumor volume): nude mice
From the text: To assess the in vivo impact of the combination of SHMT inhibition and GPX4 inhibition, the SHMT inhibitor sertraline was utilized, an FDA-approved drug, and the GPX4 inhibitor JKE-1674 for both in vitro and in vivo cell treatments. The data reveal that both SHIN2 and sertraline sensitize cancer cells to JKE-1674-induced ferroptosis (FIG. 11A-11B). […] Additionally, liproxstain-1 reversed the 4-HNE staining score back to levels similar to the vehicle control (FIG. 11F-I).

LKR-13 tumor = LKR-13 tumor growth in 129/Sv mouse model; format: in vivo
From the text: The assessment of ferroptosis function on the growth of either cell-derived or patient-derived xenografts is typically conducted in immunodeficient mice, such as nude mice or NSG mice. However, for applications in clinical settings, it becomes important to evaluate ferroptosis function in immunocompetent mice. To gain a more comprehensive understanding of the role of SHMT2 inhibition in combination with ferroptosis in cancer treatment, the investigations were extended to LKR13, a mouse cell line, both in vitro and in vivo. Initially, it was confirmed that sertraline promotes JKE-1674-induced ferroptosis in vitro (FIG. 11J-11K). Subsequently, the effects of sertraline, JKE-1674, and their combination were examined on a LKR-13 tumor growth in a 129/Sv mouse model.

LKR13, a mouse cell line = assay: Cell death of LKR-13 cells in vitro; format: cell-based; settings: 24 hrs
Protocol: Cell death was measured and analyzed using flow cytometry as described previously (Zhang, Y., et al. Cell Cycle 18, 773-783, doi: 10.1080/15384101.2019.1597506 (2019); Koppula, P. et al. Nature communications 13, 2206, doi: 10.1038/s41467-022-29905-1 (2022)). Briefly, cells were seeded in 12-well plates and incubated overnight. After treatment, cells were trypsinized and collected. After washing with cold phosphate-buffered saline (PBS), the cells were stained with 2 μg/mL propidium iodide (PI) in cold PBS. The fraction of dead cells (PI-positive cells) was measured using a Attune Flow Cytometer (ThermoFisher) and analyzed by FlowJo 10 software (Lin, A. et al. Oncogene 33, 3183-3194, doi: 10.1038/one.2013.273 (2014); Liu, X. & Gan, B. et al. Cell Cycle 15, 3471-3481, doi: 10.1080/15384101.2016.1249545 (2016)). All experiments were performed in triplicates.

HT-1080 cells [6] = assay: Relative mitochondrial lipid peroxidation level; format: cell-based, human; settings: for relative mitochondrial lipid peroxidation level in combination with RSL3: combined with RSL3, compared to RSL3 alone
NADP+/NADPH = assay: NADP+ and NADPH measurement; format: cell-based; settings: treated vs untreated cells
[7] = HT-1080 tumors, immunochemistry
[8] = RSL3 treated SUOX knockout cells

O=S(=O)(NC1CCCCC1)c1ccc2c(c1)C(=NO)c1cc(S(=O)(=O)NC3CCCCC3)ccc1-2 [FIN56]
cell death in SHMT2 knockout cells (HT-1080 cells [1]): induced cell death and or decrease viability

NC(=O)c1ccc(N)nc1 [6-AN, 6-Aminonicotinamide]
cell death in combination with RSL3 (HT-1080 cells [1]): enhanced the cell death | cell death induced by the agent on its own (HT-1080 cells [1]; without RSL3): did not induce cell death on its own

O=S(=O)([O-])[O-].[Na+].[Na+] [Sulfate, Sodium sulfate]
cell death in combination with RSL3 (HT-1080 cells [1]): did not synergistically increase

CCOC(=O)c1ccc(NC2CCCCC2)c(N)c1 [Fer-1, Ferrostatin-1]
rescue of ferroptosis induced by the combination of RSL3 and sulfite ([2]; Fer-1 5 μm): could be rescued | rescue of the impact of SUOX knockout on RSL3 cell death (HT-1080 cells [1]; Fer-1 and RSL3, SUOX knockout HT-1080 cells): rescued | cell death of RSL3 and 6-AN combination when combined with Ferr-1 (HT-1080 cells [1]; RSL3 + 6-AN + Ferr-1): did not induce cell death | SHMT2 knockout increase of RSL3 mediated cell death when combined with Fer-1 (HT-1080 cells [1]; RSL3 + Fer-1, SHMT2 knockout cells): not observed | rescue of RSL3 plus sulfite induced cell death or decrease in cell viability (HT-1080 cells [1]): rescued

N[C@@H](CSS(=O)(=O)O)C(=O)O [S-sulfocysteine]
cell viability when combined with different concentrations of RSL3 (HT-1080 cells [3]; combined with RSL3, range of concentrations): sensitized | cell death in combination with RSL3 (HT-1080 cells [1]): sensitized | cell death in combination with FIN56 (HT-1080 cells [1]): sensitized | cell death in combination with JKE-1674 (HT-1080 cells [1]): sensitized | cell death in combination with ML-162 (HT-1080 cells [1]): sensitized | cell death in combination with ML-210 (HT-1080 cells [1]; combined with ferroptosis inducer ML-210): sensitized | relative lipid peroxidation level in combination with FIN56 (HT-1080 cells [4]; combined with FIN56): increased | relative lipid peroxidation level in combination with RSL3 (HT-1080 cells [4]): increased

COc1ccc(N(C(=O)CCl)C(C(=O)NCCc2ccccc2)c2cccs2)cc1Cl (stereo not drawn) [ML-162]
cell death in MTHFD2 knockout cells (HT-1080 cells [1]): significantly increase | cell death in SHMT2 knockout cells (HT-1080 cells [1]): induced cell death and or decrease viability

CN[C@H]1CC[C@@H](c2ccc(Cl)c(Cl)c2)c2ccccc21 [sertraline]
staining for Ki-67 in tumors [5, 7]: did not alter staining | staining for cleaved caspase-3 in tumors [5, 7]: did not alter staining | growth of HT-1080-derived xenografts (tumor volume) [5]: no discernible effect | LKR13 tumor graft growth (LKR-13 tumor): did not impact | cell death in combination with RSL3 (HT-1080 cells [1]): significantly increase | cell death in combination with JKE-1674 (HT-1080 cells [1]): enhance cell death; also recorded: sensitize | cell death in combination with ML-162 (HT-1080 cells [1]): significantly enhance | cell death over various concentrations of RSL3 (HT-1080 cells [1]): enhance cell death | JKE-1674-induced ferroptosis in vitro (LKR13, a mouse cell line): promotes | relative lipid peroxidation level in combination with RSL3 (HT-1080 cells [4]): significantly increase | relative mitochondrial lipid peroxidation level in combination with RSL3 (HT-1080 cells [6]): significantly increase

Clc1cccc(CN=C2Nc3ccccc3NC23CCNCC3)c1 [liproxstain-1, Liproxstatin-1]
4-HNE staining score when added to JKE-1674+sertraline ([5]; HT-1080 tumors, JKE-1674+sertraline+Lip-1): reversed | rescue of RSL3 plus sulfite induced cell death or decrease in cell viability (HT-1080 cells [1]): rescued

COC(=O)c1ccc([C@H]2c3[nH]c4ccccc4c3C[C@H](C(=O)OC)N2C(=O)CCl)cc1 [RSL3]
cell viability in SHMT2 knockout cells (HT-1080 cells [3]; varying concentrations of RSL3, SHMT2 knockout): reduced | cell death in SUOX knockout cells vs sg control cells (HT-1080 cells [1]; SUOX knockout HT-1080 cells): Greater cell death | cell death in MTHFD2 knockout cells (HT-1080 cells [1]): significantly increase | cell death in SHMT2 knockout cells (HT-1080 cells [1]): increased | relative lipid peroxidation level % in SUOX knockout cells (HT-1080 cells [4]; [8]): mirrored | lipid peroxidation level in SHMT2 knock out cells (HT-1080 cells [4]; upon RSL3 treatment): increased lipid peroxidation level | relative mitochondrial lipid peroxidation level % in SUOX knockout cells (HT-1080 cells [6]; [8]): mirrored | mitochondrial lipid peroxidation level in SHMT2 knock out cells (HT-1080 cells [6]; upon RSL3 treatment): increased mitochondrial lipid peroxidation level

Nc1nc2ccn(CCCCc3ccc(C(=O)N[C@@H](CCC(=O)O)C(=O)O)c(F)c3)c2c(=O)[nH]1 [AGF347]
cell death in combination with RSL3 (HT-1080 cells [1]): increase cell death | cell death in combination with FIN56 (HT-1080 cells [1]): also observed; also recorded: increase cell death | cell death in combination with ML-162 (HT-1080 cells [1]): also observed; also recorded: increase cell death | cell death over various concentrations of RSL3 (HT-1080 cells [1]): enhance cell death | relative lipid peroxidation level in combination with RSL3 (HT-1080 cells [4]): increased lipid peroxidation levels; also recorded: increase lipid peroxidation | relative mitochondrial lipid peroxidation level in combination with RSL3 (HT-1080 cells [6]): increased relative mitochondrial lipid peroxidation level; also recorded: increase mitochondrial lipid peroxidation

O=C(/C(C[N+](=O)[O-])=N/O)N1CCN(C(c2ccc(Cl)cc2)c2ccc(Cl)cc2)CC1 [JKE-1674]
growth of HT-1080-derived xenografts (tumor volume) [5]: no discernible effect | LKR13 tumor graft growth (LKR-13 tumor): did not impact | cell death in MTHFD2 knockout cells (HT-1080 cells [1]): significantly increase | cell death in SHMT2 knockout cells (HT-1080 cells [1]): induced cell death and or decrease viability

Cc1n[nH]c2c1[C@](c1cc(C#CCCCO)cc(CO)c1)(C(C)C)C(C#N)=C(N)O2 [SHIN2]
NADP+/NADPH ratio (NADP+/NADPH): higher | enhancement of ferroptosis induced by RSL3 [2]: enhance ferroptosis | cell death in combination with RSL3 (HT-1080 cells [1]): increase cell death | cell death in combination with FIN56 (HT-1080 cells [1]): also observed; also recorded: increase cell death | cell death in combination with JKE-1674 (HT-1080 cells [1]): enhance cell death; also recorded: sensitize | cell death in combination with ML-162 (HT-1080 cells [1]): also observed; also recorded: increase cell death | cell death over various concentrations of RSL3 (HT-1080 cells [1]): enhance cell death | relative lipid peroxidation level in combination with RSL3 (HT-1080 cells [4]): increased lipid peroxidation levels; also recorded: increase lipid peroxidation | relative mitochondrial lipid peroxidation level in combination with RSL3 (HT-1080 cells [6]): increased relative mitochondrial lipid peroxidation level; also recorded: increase mitochondrial lipid peroxidation

Cc1n[nH]c2c1[C@](c1cc(CO)cc(-c3ccccc3)c1)(C(C)C)C(C#N)=C(N)O2 [SHIN1]
NADP+/NADPH ratio (NADP+/NADPH): higher | enhancement of ferroptosis induced by RSL3 [2]: enhance ferroptosis | cell death in combination with RSL3 (HT-1080 cells [1]): increase cell death | cell death in combination with FIN56 (HT-1080 cells [1]): also observed; also recorded: increase cell death | cell death in combination with ML-162 (HT-1080 cells [1]): also observed; also recorded: increase cell death | cell death over various concentrations of RSL3 (HT-1080 cells [1]): enhance cell death | relative lipid peroxidation level in combination with RSL3 (HT-1080 cells [4]): increased lipid peroxidation levels; also recorded: increase lipid peroxidation | relative mitochondrial lipid peroxidation level in combination with RSL3 (HT-1080 cells [6]): increased relative mitochondrial lipid peroxidation level; also recorded: increase mitochondrial lipid peroxidation

O=S(O)(O)=S [thiosulfate, Sodium Thiosulfate]
cell death as observed visually (HT-1080 cells [1]; 0.5 mM, cancer cells, presence or absence of RSL3): to a very small extent | cell death in combination with RSL3 (HT-1080 cells [1]): significantly more than the cell death observed with vehicle control upon treatment with RSL3, but less than the cell death observed with sulfite

Reference: US20260248767A1, “METHODS FOR INDUCING FERROPTOSIS IN CANCER” (Board of Regents, The University of Texas System, priority 2023, published 2026)
